Reference: patent US12042564B2, “Therapeutic solid dosage forms” (CYBIN UK LTD, priority 2020, dated 2024)
Where “and” joins values, the source holds several entries; their conditions need not be identical. Equal entries are not always repeated. Marks after values point to notes of the source that are not given here.

Experiments:
[1] = Intrinsic clearance and half-life in human liver mitochondrial fraction; format: in vitro ADME; conditions: 0.5 mg/mL human liver mitochondrial fraction; 1 μM test compounds, 5 μM controls; mean of replicates
Excerpt: (§1) Use of Liver Mitochondrial Fraction to Model Human Metabolism of Deuterated DMT

[2] = test system: human liver mitochondrial fraction; experiment: as above; format: in vitro ADME; conditions: 0.5 mg/mL human liver mitochondrial fraction, 1 μM test compounds; for Half-life (min) R1: 5 μM Serotonin and Benzylamine controls, replicate 1; for Half-life (min) R3 / Half-life (min) R4 / Half-life (min) Mean: 5 μM controls; for Half-life (min) R3: replicate 3; for Half-life (min) R4: replicate 4; for Half-life (min) Mean: mean of replicates
Excerpt: as §1

[3] = test system: Human (mixed gender) hepatocytes; experiment: In vitro intrinsic clearance of DMT and deuterated blends in human hepatocytes; format: in vitro ADME
Description: Use of Human Hepatocytes to Assess the In Vitro Intrinsic Clearance of Deuterated DMT Analogue Blends Relative to DMT
To use human hepatocytes to assess the in vitro intrinsic clearance of deuterated DMT analogue blends relative to DMT.
Test compounds were mixed with the hepatocyte suspension within a 96-well plate and incubated for up to 60 minutes at 37° C. The suspension was continuously agitated. At 7 time points, small aliquots were withdrawn, and the test compound/blend concentration therein was measured by LC-MS/MS.
Intrinsic clearance and half-life values were calculated for DMT and the 6 deuterated mixtures described above.

[4] = Plasma pharmacokinetics of test compound after oral dosing in rats; conditions: for mean Cmax / Determined Concentration of test compound in plasma / Determined Concentration of test compound in plasma, Mean: rat plasma; for mean Cmax: 25 mg/kg single oral gavage; for Determined Concentration of test compound in plasma / Determined Concentration of test compound in plasma, Mean: oral dosing; for Determined Concentration of test compound in plasma: individual animal; for Determined Concentration of test compound in plasma, Mean: mean of 3 animals; for systemic exposure compared to SPL026: rat, oral (PO) dosing
[5] = Plasma IAA metabolite levels after oral dosing in rats; conditions: for Mean IAA Cmax: rat plasma IAA (semi quantified) after 25 mg/kg PO of the compound; for Mean IAA tmax: rat plasma IAA after 25 mg/kg PO of the compound; for Estimated IAA Concentration / Estimated IAA Concentration, Mean: rat plasma, PO Dose (25 mg/kg); for Estimated IAA Concentration: individual animal; for Estimated IAA Concentration, Mean: mean of animals; for IAA biosynthesis compared to SPL026: rat, PO dosing
[6] = 10 min, fumarate salt, 25 mg/kg
[7] = 15 min, fumarate salt, 25 mg/kg
[8] = 30 min, fumarate salt, 25 mg/kg
[9] = 45 min, fumarate salt, 25 mg/kg
[10] = 60 min, fumarate salt, 25 mg/kg
[11] = 120 min, fumarate salt, 25 mg/kg
[12] = 180 min, fumarate salt, 25 mg/kg

In the case of `NCCc1c[nH]c2ccc(O)cc12` [Serotonin, reference compound], the half-life at 5 μM [1] is reported as 9 min, the “Half-life (min) R1” value [2] is reported as 9.3 min and the “Half-life (min) R3” value [2] is reported as 9.1 min. The “Half-life (min) R4” value [2] was 8.5 min.

For `[2H]C([2H])([2H])N(CCc1c[nH]c2ccccc12)C([2H])([2H])[2H]` [SPL028vii], the “Half-life (min) Mean” value [2] was 10.2 min, the “Half-life (min) R3” value [2] was 9.4 min and the “Half-life (min) R4” value [2] was 10.9 min.

With `O=C(O)/C=C/C(=O)O.[2H]C([2H])(Cc1c[nH]c2ccccc12)N(C)C` [SPL028i, (96.6%) α,α,-dideutero-N,N-dimethyltryptamine fumarate salt] the “Half-life (min) R1” value [2] was 86.1 min, the “Half-life (min) Mean” value [2] was 85.0 min and the “Half-life (min) R3” value [2] was 82.6 min. The “Half-life (min) R4” value [2] was 72.1 min, the “half-life compared to undeuterated-DMT” value [3] was “nearly doubling” and the “intrinsic clearance rate compared to undeuterated-DMT” value [3] was “almost halved”. The “mean Cmax” value [4] was 54.3 ng/mL, the “Determined Concentration of test compound in plasma” value ([4]; 1 min) was “BLQ (Below the lower limit of quantification 0.310 ng/mL)” and the “Determined Concentration of test compound in plasma, Mean” value (“Determined Concentration … Mean” below) ([4]; 1 min) was “BLQ (Below the lower limit of quantification 0.310 ng/mL)”. For the same compound, the “Determined Concentration of test compound in plasma” value ([4]; 5 min, fumarate salt) was 0.865 ng/mL and 5.85 ng/mL and 0.688 ng/mL, the “Determined Concentration … Mean” value ([4]; 5 min) was 2.5 ng/mL and the “Determined Concentration of test compound in plasma” value ([4]; 10 min, fumarate salt) was 2.42 ng/mL and 49.2 ng/mL and 6.72 ng/mL. For the same compound, the “Determined Concentration … Mean” value ([4]; 10 min) was 19.4 ng/mL, the “Determined Concentration of test compound in plasma” value ([4]; 15 min, fumarate salt) was 7.46 ng/mL and 34.3 ng/mL and 19.0 ng/mL and the “Determined Concentration … Mean” value ([4]; 15 min) was 20.3 ng/mL. The “Determined Concentration of test compound in plasma” value ([4]; 30 min, fumarate salt) was 22.6 ng/mL (2×) and 46.4 ng/mL, the “Determined Concentration … Mean” value ([4]; 30 min) was 30.5 ng/mL and the “Determined Concentration of test compound in plasma” value ([4]; 45 min, fumarate salt) was 22.6 ng/mL and 33.1 ng/mL and 43.7 ng/mL. The “Determined Concentration … Mean” value ([4]; 45 min) was 33.1 ng/mL, the “Determined Concentration of test compound in plasma” value ([4]; 60 min, fumarate salt) was 30.5 ng/mL and 32.1 ng/mL and 53.1 ng/mL and the “Determined Concentration … Mean” value ([4]; 60 min) was 38.6 ng/mL. The “Determined Concentration of test compound in plasma” value ([4]; 120 min, fumarate salt) was 38.0 ng/mL and 18.7 ng/mL and 49.3 ng/mL, the “Determined Concentration … Mean” value ([4]; 120 min) was 35.3 ng/mL and the “Determined Concentration of test compound in plasma” value ([4]; Predose) was “BLQ (Below the lower limit of quantification 0.310 ng/mL)”. The “Determined Concentration … Mean” value ([4]; Predose) was “BLQ (Below the lower limit of quantification 0.310 ng/mL)”, the “systemic exposure compared to SPL026” value [4] was “increased systemic exposure” and the “Mean IAA Cmax” value ([5]; fumarate salt) was 2.933 ng/mL and 2.993 ng/mL. For the same compound, the “Mean IAA tmax” value [5] was 45 min, the “Estimated IAA Concentration” value ([5]; 1 min) was “BLQ” and the “Estimated IAA Concentration, Mean” value ([5]; 1 min) was “BLQ”. The “Estimated IAA Concentration” value ([5]; 5 min, fumarate salt, 25 mg/kg) was 0.523 ng/mL and 0.874 ng/mL and 0.503 ng/mL, the “Estimated IAA Concentration, Mean” value ([5]; 5 min) was 0.633 ng/mL and the “Estimated IAA Concentration” value [5, 6] was 1.24 ng/mL and 1.84 ng/mL and 1.34 ng/mL. For the same compound, the “Estimated IAA Concentration, Mean” value ([5]; 10 min) was 1.473 ng/mL, the “Estimated IAA Concentration” value [5, 7] was 2.41 ng/mL and 0.749 ng/mL and 1.97 ng/mL and the “Estimated IAA Concentration, Mean” value ([5]; 15 min) was 1.709 ng/mL. For the same compound, the “Estimated IAA Concentration” value [5, 8] was 3.53 ng/mL and 2.10 ng/mL and 2.18 ng/mL, the “Estimated IAA Concentration, Mean” value ([5]; 30 min) was 2.606 ng/mL and the “Estimated IAA Concentration” value [5, 9] was 4.67 ng/mL and 1.95 ng/mL and 2.35 ng/mL. The “Estimated IAA Concentration, Mean” value ([5]; 45 min) was 2.993 ng/mL, the “Estimated IAA Concentration” value [5, 10] was 2.78 ng/mL and 1.59 ng/mL and 1.50 ng/mL and the “Estimated IAA Concentration, Mean” value ([5]; 60 min) was 1.955 ng/mL. The “Estimated IAA Concentration” value [5, 11] was 2.94 ng/mL and 1.42 ng/mL and 1.81 ng/mL, the “Estimated IAA Concentration, Mean” value ([5]; 120 min) was 2.055 ng/mL and the “Estimated IAA Concentration” value [5, 12] was 2.09 ng/mL and 0.898 ng/mL and 1.45 ng/mL. For the same compound, the “Estimated IAA Concentration, Mean” value ([5]; 180 min) was 1.480 ng/mL, the “Estimated IAA Concentration” value ([5]; Predose) was “BLQ” and the “Estimated IAA Concentration, Mean” value ([5]; Predose) was “BLQ”. The “IAA biosynthesis compared to SPL026” value [5] was “significant decrease”.

For `O=C(O)/C=C/C(=O)O.[2H]C([2H])([2H])N(C([2H])([2H])[2H])C([2H])([2H])Cc1c[nH]c2ccccc12` [SPL028viii, (96.7%) α,α,-dideutero-N,N-bis-trideutero-dimethyltryptamine fumarate salt], the “Half-life (min) R3” value [2] was 92.9 min, the “Half-life (min) R4” value [2] was 131.5† min and the “mean Cmax” value [4] was 40.77 ng/mL. For the same compound, the “Determined Concentration of test compound in plasma” value ([4]; 1 min, fumarate salt) was 19.8 ng/mL and BLQ (Below the lower limit of quantification 0.310 ng/mL) (2×), the “Determined Concentration … Mean” value ([4]; 1 min) was <6.8 ng/mL and the “Determined Concentration of test compound in plasma” value ([4]; 5 min, fumarate salt) was 14.9 ng/mL and 3.11 ng/mL and 0.506 ng/mL. For the same compound, the “Determined Concentration … Mean” value ([4]; 5 min) was 6.2 ng/mL, the “Determined Concentration of test compound in plasma” value ([4]; 10 min, fumarate salt) was 18.0 ng/mL and 13.7 ng/mL and 11.8 ng/mL and the “Determined Concentration … Mean” value ([4]; 10 min) was 14.5 ng/mL. The “Determined Concentration of test compound in plasma” value ([4]; 15 min, fumarate salt) was 20.5 ng/mL and 20.3 ng/mL and 36.2 ng/mL, the “Determined Concentration … Mean” value ([4]; 15 min) was 25.7 ng/mL and the “Determined Concentration of test compound in plasma” value ([4]; 30 min, fumarate salt) was 9.08 ng/mL and 23.0 ng/mL and 35.7 ng/mL. For the same compound, the “Determined Concentration … Mean” value ([4]; 30 min) was 22.6 ng/mL, the “Determined Concentration of test compound in plasma” value ([4]; 45 min, fumarate salt) was 5.90 ng/mL and 21.7 ng/mL and 40.0 ng/mL and the “Determined Concentration … Mean” value ([4]; 45 min) was 22.5 ng/mL. For the same compound, the “Determined Concentration of test compound in plasma” value ([4]; 60 min, fumarate salt) was 4.43 ng/mL and 30.5 ng/mL and 62.0 ng/mL, the “Determined Concentration … Mean” value ([4]; 60 min) was 32.3 ng/mL and the “Determined Concentration of test compound in plasma” value ([4]; 120 min, fumarate salt) was 13.5 ng/mL and 31.6 ng/mL and 63.8 ng/mL. The “Determined Concentration … Mean” value ([4]; 120 min) was 36.3 ng/mL, the “Determined Concentration of test compound in plasma” value ([4]; Predose) was “BLQ (Below the lower limit of quantification 0.310 ng/mL)” and the “Determined Concentration … Mean” value ([4]; Predose) was “BLQ (Below the lower limit of quantification 0.310 ng/mL)”. The “systemic exposure compared to SPL026” value [4] was “increased systemic exposure”, the “Mean IAA Cmax” value [5] was 0.827 ng/mL and the “Mean IAA tmax” value [5] was 60 min. The “Estimated IAA Concentration” value ([5]; 1 min) was “BLQ”, the “Estimated IAA Concentration, Mean” value ([5]; 1 min) was “BLQ” and the “Estimated IAA Concentration” value ([5]; 5 min, fumarate salt, 25 mg/kg) was “BLQ (2×) and 0.223 ng/mL”. For the same compound, the “Estimated IAA Concentration, Mean” value ([5]; 5 min) was <0.281 ng/mL, the “Estimated IAA Concentration” value [5, 6] was “BLQ (2×) and 0.430 ng/mL” and the “Estimated IAA Concentration, Mean” value ([5]; 10 min) was <0.350 ng/mL. The “Estimated IAA Concentration” value [5, 7] was “BLQ (2×) and 0.846 ng/mL”, the “Estimated IAA Concentration, Mean” value ([5]; 15 min) was <0.489 ng/mL and the “Estimated IAA Concentration” value [5, 8] was “BLQ (2×) and 1.04 ng/mL”. For the same compound, the “Estimated IAA Concentration, Mean” value ([5]; 30 min) was <0.544 ng/mL, the “Estimated IAA Concentration” value [5, 9] was 0.347 ng/mL and 0.821 ng/mL and 1.0 ng/mL and the “Estimated IAA Concentration, Mean” value ([5]; 45 min) was 0.733 ng/mL. The “Estimated IAA Concentration” value [5, 10] was “BLQ and 0.772 ng/mL and 0.883 ng/mL”, the “Estimated IAA Concentration, Mean” value ([5]; 60 min) was 0.827 ng/mL and the “Estimated IAA Concentration” value [5, 11] was “BLQ and 0.516 ng/mL and 0.747 ng/mL”. For the same compound, the “Estimated IAA Concentration, Mean” value ([5]; 120 min) was 0.631 ng/mL, the “Estimated IAA Concentration” value [5, 12] was “BLQ and 0.747 ng/mL and 0.673 ng/mL” and the “Estimated IAA Concentration, Mean” value ([5]; 180 min) was 0.710 ng/mL. The “Estimated IAA Concentration” value ([5]; Predose) was “BLQ”, the “Estimated IAA Concentration, Mean” value ([5]; Predose) was “BLQ” and the “IAA biosynthesis compared to SPL026” value [5] was “significant decrease”.

With `NCc1ccccc1` [Benzylamine, reference compound] the half-life at 5 μM [1] was 22.8 min, the “Half-life (min) R1” value [2] was 24.3 min and the “Half-life (min) R3” value [2] was 21.2 min. For the same compound, the “Half-life (min) R4” value [2] was 23.5 min.
